The numbers were not newly measured in US9155796B2, “Hydrogels with covalently linked polypeptides” (SUSAVION BIOSCIENCES, INC., priority 2012, dated 2015), which cites them from elsewhere.

The data set has as its system peripheral blood mononuclear cells (PBMCs). The following applies: PBMC cultures; within 4 hours.
For the substance “(VSNQH-PEG2-)4-Lys2-Lys-PEG2-Cys[—CH2CH(Me): CH2]—NH2 (not fully specified; tetravalent Lys dendrimer, PEG2 linkers, modified Cys amide; Therapeutic peptide) [SVD2]”, the “increased PDGF secretion” value is recorded as “two- to four-fold”.
For the substance “(VQATQS-PEG2-)4-Lys2-Lys-PEG2-Cys[—CH2CH(Me): CH2]—NH2 (not fully specified; tetravalent Lys dendrimer, PEG2 linkers, modified Cys amide; Therapeutic peptide) [SVC1]”, the “increased PDGF secretion” value is “two- to four-fold”.
Take “(NQHTPR-PEG2-)4-Lys2-Lys-PEG2-Cys[—CH2CH(Me): CH2]—NH2 (not fully specified; tetravalent Lys dendrimer, PEG2 linkers, modified Cys amide; Therapeutic peptide) [SV6D]”: the “increased PDGF secretion” value was “two- to four-fold”.
For “(WNSTL-PEG2-)4-Lys2-Lys-PEG2-Cys[CH2CH(Me): CH2]—NH2 (not fully specified; tetravalent Lys dendrimer, PEG2 linkers, modified Cys amide; Therapeutic peptide) [SVH1B]”, the “increased PDGF secretion” value is recorded as “two- to four-fold”.
